Biological target: T1, AlaRS R329H binding to GST-Nrp1 b1 (Homo sapiens, UniProt P49588, R329H)
T1 construct: made in house; host or cells: E. coli BL21 (DE3), pET-21a for AlaRS
T1 sequence (P49588 1-968 R329H): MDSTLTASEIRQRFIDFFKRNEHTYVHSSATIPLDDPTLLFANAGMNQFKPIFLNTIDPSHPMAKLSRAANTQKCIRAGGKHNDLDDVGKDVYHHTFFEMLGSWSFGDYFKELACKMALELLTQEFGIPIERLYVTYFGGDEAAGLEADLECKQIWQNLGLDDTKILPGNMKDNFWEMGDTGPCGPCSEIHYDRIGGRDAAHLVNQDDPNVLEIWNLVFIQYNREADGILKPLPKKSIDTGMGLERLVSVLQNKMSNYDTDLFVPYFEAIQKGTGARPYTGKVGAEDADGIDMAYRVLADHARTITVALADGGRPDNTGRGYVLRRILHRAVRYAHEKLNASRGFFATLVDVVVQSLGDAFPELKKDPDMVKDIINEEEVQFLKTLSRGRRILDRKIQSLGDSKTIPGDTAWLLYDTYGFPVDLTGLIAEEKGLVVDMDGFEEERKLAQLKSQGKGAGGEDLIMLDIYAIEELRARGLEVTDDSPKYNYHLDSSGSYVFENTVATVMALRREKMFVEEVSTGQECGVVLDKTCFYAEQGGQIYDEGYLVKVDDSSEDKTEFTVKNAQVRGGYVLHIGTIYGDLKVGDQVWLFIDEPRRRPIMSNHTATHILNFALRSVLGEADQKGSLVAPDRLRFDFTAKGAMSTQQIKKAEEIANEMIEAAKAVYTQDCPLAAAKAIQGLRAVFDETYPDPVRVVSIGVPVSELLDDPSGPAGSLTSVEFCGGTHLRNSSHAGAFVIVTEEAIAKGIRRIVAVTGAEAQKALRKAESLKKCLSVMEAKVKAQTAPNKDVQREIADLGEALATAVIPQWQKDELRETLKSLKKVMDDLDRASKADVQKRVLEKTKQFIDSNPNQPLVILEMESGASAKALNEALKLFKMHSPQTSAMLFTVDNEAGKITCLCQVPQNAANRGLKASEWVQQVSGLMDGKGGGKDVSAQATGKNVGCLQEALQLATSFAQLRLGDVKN
Assay: GST pull down assay
Conditions: 20 µM Tanshinone I, ImageJ, average of three repeats
Experimental: To further investigate whether Tanshinone I-induced conformational changes in AlaRS CMT mutants affect their interaction with Nrp1, Co-IP experiments were performed in cells treated with Tanshinone I. By comparing Co-IP results obtained before and after treatment, we assessed the influence of the drug on the binding strength and mode between the AlaRS CMT mutants and Nrp1. […] To confirm the direct effect of Tanshinone I on the interaction between AlaRS CMT mutants and Nrp1, pull-down experiments were performed. […] Given that the interaction between AlaRS mutants and Nrp1 is associated with disease progression in CMT, the ability of Tanshinone I to disrupt this binding highlights its potential to intervene in the pathogenic mechanisms of these diseases.
Figure 7 The impact of Tanshinone I on the interaction between AlaRS mutants and Nrp1. (A) Co-IP assays were conducted to assess the binding between HA-AlaRS mutants and Nrp1, both with and without treatment with 20 µM Tanshinone I for 24 h. […] (C) Pull down assay was performed to detect the binding between AlaRS mutants and GST-Nrp1 b1 with or without 20 µM Tanshinone I. (D) Relative quantification statistics of the AlaRS mutants pulled down from the GST pull down experiments after Tanshinone I treatment were performed using ImageJ. (E) The cell viability of 293T and NSC34 cells treated with different concentrations of Tanshinone I was assessed using the CCK-8 assay over a 24 h period. TEXT PRINTED IN THE PICTURE: (B) Tanshinone I: Mean density band (N71Y): 0.60; Mean density band (G102R): 0.53; Mean density band (R326W): 0.50; Mean density band (R329H): 0.50; Mean density band (E337K): 0.62 | (D) Tanshinone I: Mean density band (N71Y): 0.82; Mean density band (G102R): 0.76; Mean density band (R326W): 0.84; Mean density band (R329H): 0.84; Mean density band (E337K): 0.90
To detect the direct interactions between the mutant proteins and Nrp1 in vitro, we performed a Glutathione S-transferase (GST) pull-down assay. AlaRS mutants fused with 6 × His were purified with Ni-NTA beads, followed by chromatography on a HiTrap Q HP column. Nrp1 b1 fragments fused with GST were purified with Glutathione Beads (#SA008100, Smart-Lifesciences, Changzhou, China). For GST pull-down assays, 1000 μg of each GST-fused Nrp1 b1 fragment was mixed with 200 μg of 6 × His-tagged fusion protein in binding buffer (50 mM Tris-HCl pH 7.5, 20 mM NaCl, 5% glycerol, 5 mM DTT with 0.1% BSA) at 4 °C overnight. The mixture was next incubated with 30 μL glutathione beads at 4 °C with constant rotation for 2–4 h. Subsequently, the bead/protein complex was washed three times, and eluted with 30 μL 2 × SDS sample buffer. The samples were then subjected to SDS-PAGE analysis. The experiment was repeated three times.

Mean density band (R329H), relative quantification of AlaRS mutant pulled down: 0.84
Structure (SMILES): Cc1coc2c1C(=O)C(=O)c1c-2ccc2c(C)cccc12 [Tanshinone I]

From publication PMC11509018, “Evaluation of the Role of Tanshinone I in an In Vitro System of Charcot-Marie-Tooth Disease Type 2N” (International Journal of Molecular Sciences, 2024)
